Reference: US9006228B2 (Merck Sharp & Dohme Corp., priority 2011, dated 2015)

These molecules were tested against T1, human GPR119 (Homo sapiens, UniProt Q8TDV5) (assay: Measurement of GPR119 signaling (cAMP assay; LANCE kit or HTRF) in HEK293 cells stably transfected with human GPR119). Conditions: agonist-stimulated cAMP in HEK293 cells expressing human GPR119.
T1 sequence (Q8TDV5 1-308 limits assumed): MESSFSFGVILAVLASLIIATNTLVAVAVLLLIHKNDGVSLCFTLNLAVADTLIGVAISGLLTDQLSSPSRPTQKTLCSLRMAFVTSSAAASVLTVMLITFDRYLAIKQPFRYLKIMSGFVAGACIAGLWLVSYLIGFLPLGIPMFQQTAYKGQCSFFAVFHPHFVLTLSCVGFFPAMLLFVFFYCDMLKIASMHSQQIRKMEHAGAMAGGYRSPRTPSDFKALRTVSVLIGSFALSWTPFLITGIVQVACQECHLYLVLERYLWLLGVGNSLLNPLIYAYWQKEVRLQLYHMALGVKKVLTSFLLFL
Type: cell-based
Procedure: Measurement of GPR119 Signaling Using LANCE 384-Well cAMP Kit
The adenylate cyclase assay was constructed following the LANCE™ cAMP Kit (Perkin Elmer, AD0264) instructions. […] The reaction was stopped by incubating with the supplied detection buffer containing the europium chelate of the Eu-SA/Biotin-cAMP tracer for 3 hours. The assay was performed in duplicate in a 384 well plate for duplicate plates. Fluorescence at 665 nm was measured using a PHERAstar instrument. Basal activity was determined using a DMSO control and maximum response was defined as cAMP stimulation produced by an internal agonist control. Standard cAMP concentrations were assayed concurrently for conversion of fluorescence signal to cAMP level. The data was analyzed using 4-parameter curve fit in Microsoft Excel.
Measurement of GPR119 Signaling Using a Cyclic AMP (cAMP) Homogenous Time Resolved Fluorescence (HTRF) Assay
Chinese hamster ovary (CHO) cell lines stably transfected with the permissive guanine nucleotide binding protein alpha 15 (Gα15) and murine GPR119 were maintained in DMEM media containing FBS, penicillin-streptomycin, puromycin, and G418 (geneticin). […] Agonist activation of the GPR119 receptor was measured in receptor transfected cells described above, treated with compounds of this invention, using a commercial homogenous time resolved fluorescence (HTRF) kit for measurement of cAMP (CisBio, Bedford, Mass.). The assay was performed in 96-well half-volume plates (murine) or 384-well plates (human) following the manufacturers instructions. Briefly, suspended cells were incubated with a dose titration of test compound at RT for 60 min, lysed, and incubated with HTRF reagents for an additional 60 min. The plate was read using an Envision multilabel reader (Perkin Elmer) adjusted to read time resolved fluorescence and the cAMP concentrations were extrapolated from a cAMP calibration curve. […] The concentration of test compound required to stimulate a half-maximal response (EC50), and efficacy as compared to an internal agonist control, was determined from a sigmoidal 4-parameter curve fit of the resulting plot of normalized activity versus compound concentration.

| Structure (SMILES) | EC50 [nM] |
| --- | --- |
| COCc1noc(N2CCC([C@H]3C[C@H]3COCc3ccc(CC(=O)N4CCC4)c(F)c3)CC2)n1 [Example 144, 1-(azetidin-1-yl)-2-(2-fluoro-4-((((1R,2R)-2-(1-(3-(methoxymethyl)-1,2,4-oxadiazol-5-yl)piperidin-4-yl)cyclopropyl)methoxy)methyl)phenyl)ethanone] | 11.4 |
| CCCc1cnc(N2CCC([C@H]3C[C@H]3COCc3ccc(S(C)(=O)=O)cc3)CC2)nc1 [Example 22, 2-{4-[(1R,2R)-2-({[4-(methylsulfonyl)benzyl]oxy}methyl)cyclopropyl]piperidin-1-yl}-5-propylpyrimidine] | 0.3 |
| CC(C)OC(=O)N1CCC([C@H]2C[C@H]2COCc2cc(F)c(S(C)(=O)=O)c(F)c2)CC1 [Example 50, isopropyl 4-[(1R,2R)-2-({[3,5-difluoro-4-(methylsulfonyl)benzyl]oxy}methyl)cyclopropyl] piperidine-1-carboxylate] | 20.5 |
| CCc1cnc(N2CCC([C@H]3C[C@H]3COCc3ccc(-n4cnnn4)cc3)CC2)nc1 [Example 61, 5-ethyl-2-{4-[(1R,2R)-2-({[4-(1H-tetrazol-1-yl)benzyl]oxy}methyl)cyclopropyl]piperidin-1-yl}pyrimidine] | 0.07 |
| CS(=O)(=O)c1ccc(COC[C@@H]2C[C@@H]2C2CCN(c3ncc(F)cn3)CC2)nc1 [Example 5, 5-fluoro-2-{4-[(1R,2R)-2-({[5-(methylsulfonyl)pyridin-2-yl]methoxy}methyl)cyclopropyl]piperidin-1-yl}pyrimidine] | 21 |
| COc1cnc(N2CCC([C@H]3C[C@H]3COCc3ccc(S(C)(=O)=O)cn3)CC2)nc1 [Example 6, 5-methoxy-2-{4-[(1R,2R)-2-({[5-(methylsulfonyl)pyridin-2-yl]methoxy}methyl)cyclopropyl]piperidin-1-yl}pyrimidine] | 15 |
| COc1cnc(N2CCC([C@H]3C[C@H]3COCc3ccc(S(C)(=O)=O)cc3)CC2)nc1 [Example 15, 5-methoxy-2-{4-[(1R,2R)-2-({[4-(methylsulfonyl)benzyl]oxy}methyl)cyclopropyl]piperidin-1-yl}pyrimidine] | 0.4 |
| CCCOC(=O)N1CCC([C@H]2C[C@H]2COCc2ccc(S(C)(=O)=O)cc2)CC1 [Example 8, propyl 4-[(1R,2R)-2-({[4-(methylsulfonyl)benzyl]oxy}methyl)cyclopropyl]piperidine-1-carboxylate] | 16 |
| CCc1cnc(N2CCC([C@H]3C[C@H]3COCc3ccc(-c4ccnnc4)cc3F)CC2)nc1 [Example 102, 4-{4-[({(1R,2R)-2-[1-(5-ethylpyrimidin-2-yl)piperidin-4-yl]cyclopropyl}methoxy)methyl]-3-fluorophenyl}pyridazine] | 0.6 |
| O=S(=O)(CCO)c1ccc(COC[C@@H]2C[C@@H]2C2CCN(c3ncc(C4CC4)cn3)CC2)nc1 [Example 90, 2-({6-[({(1R,2R)-2-[1-(5-cyclopropylpyrimidin-2-yl)piperidin-4-yl]cyclopropyl}methoxy)methyl]pyridin-3-yl}sulfonyl)ethanol] | 23 |
| COC(C)c1cnc(N2CCC([C@H]3C[C@H]3COCc3ccc(S(C)(=O)=O)c(F)c3)CC2)nc1 (single isomer, unassigned) [Example 130] | 0.72 |
| CCS(=O)(=O)c1ccc(COC[C@@H]2C[C@@H]2C2CCN(c3ncc(COC)cn3)CC2)c(F)c1 [Example 127, 2-(4-((1R,2R)-2-(((4-(ethylsulfonyl)-2-fluorobenzyl)oxy)methyl)cyclopropyl)piperidin-1-yl)-5-(methoxymethyl)pyrimidine] | 2.8 |
| COC(C)c1cnc(N2CCC([C@H]3C[C@H]3COCc3ccc(S(C)(=O)=O)c(F)c3)CC2)nc1 (single isomer, unassigned) [Example 131] | 1.03 |
| CCS(=O)(=O)c1ccc(COC[C@@H]2C[C@@H]2C2CCN(c3nc(C4CC4)no3)CC2)cc1 [Example 29, 1-(3-cyclopropyl-1,2,4-oxadiazol-5-yl)-4-[(1R,2R)-2-({[4-(ethylsulfonyl)benzyl]oxy}methyl)cyclopropyl]piperidine] | 2.3 |
| CC1(OC(=O)N2CCC([C@H]3C[C@H]3COCc3cc(F)c(S(C)(=O)=O)c(F)c3)CC2)CC1 [Example 49, 1-methylcyclopropyl 4-[(1R,2R)-2-({[3,5-difluoro-4-(methylsulfonyl)benzyl]oxy}methyl)cyclopropyl] piperidine-1-carboxylate] | 11.7 |
| CCc1cnc(N2CCC([C@H]3C[C@H]3COCc3ccc(-c4ccncn4)cc3F)CC2)nc1 [Example 110, 4-{4-[({(1R,2R)-2-[1-(5-ethylpyrimidin-2-yl)piperidin-4-yl]cyclopropyl}methoxy)methyl]-3-fluorophenyl}pyrimidine] | 1.5 |
| COC1CN(C(=O)Cc2ccc(COC[C@@H]3C[C@@H]3C3CCN(c4nc(C(C)C)no4)CC3)cc2F)C1 [Example 142, 2-(2-fluoro-4-((((1R,2R)-2-(1-(3-isopropyl-1,2,4-oxadiazol-5-yl)piperidin-4-yl)cyclopropyl)methoxy)methyl)phenyl)-1-(3-methoxyazetidin-1-yl)ethanone] | 0.95 |
| COCc1cnc(N2CCC([C@H]3C[C@H]3COCc3ccc(CC(=O)N(C)C)cc3F)CC2)nc1 [Example 147, 2-(3-fluoro-4-((((1R,2R)-2-(1-(5-(methoxymethyl)pyrimidin-2-yl)piperidin-4-yl)cyclopropyl)methoxy)methyl)phenyl)-N,N-dimethylacetamide] | 2.52 |
| CCc1noc(N2CCC([C@H]3C[C@H]3COCc3ccc(S(C)(=O)=O)cc3)CC2)n1 [Example 30, 1-(3-ethyl-1,2,4-oxadiazol-5-yl)-4-[(1R,2R)-2-({[4-(methylsulfonyl)benzyl]oxy}methyl)cyclopropyl]piperidine] | 2.8 |
| COCc1cnc(N2CCC([C@H]3C[C@H]3COCc3ccc(CC(=O)N4CCC4)cc3F)CC2)nc1 [Example 145, 1-(azetidin-1-yl)-2-(3-fluoro-4-((((1R,2R)-2-(1-(5-(methoxymethyl)pyrimidin-2-yl)piperidin-4-yl)cyclopropyl)methoxy)methyl)phenyl)ethanone] | 5.16 |
| CCc1cnc(N2CCC([C@H]3C[C@H]3COCc3ccc(-c4cnccn4)cc3)CC2)nc1 [Example 123] | 9.8 |
| O=C(c1ccc(COC[C@@H]2C[C@@H]2C2CCN(c3ncc(Cl)cn3)CC2)cc1F)C1CC1 [Example 51] | 3.7 |
| CCS(=O)(=O)c1ccc(COC[C@@H]2C[C@@H]2C2CCN(c3nc(C4CC4)no3)CC2)cc1F [Example 39, 1-(3-cyclopropyl-1,2,4-oxadiazol-5-yl)-4-[(1R,2R)-2-({[3-fluoro-4-(ethylsulfonyl)benzyl]oxy}methyl)cyclopropyl]piperidine] | 0.6 |
| Cc1cnc(N2CCC([C@H]3C[C@H]3COCc3ccc(S(C)(=O)=O)cn3)CC2)nc1 [Example 2, 5-methyl-2-{4-[(1R,2R)-2-({[5-(methylsulfonyl)pyridin-2-yl]methoxy}methyl)cyclopropyl]piperidin-1-yl}pyrimidine] | 10.8 |
| CC(C)c1noc(N2CCC([C@H]3C[C@H]3COCc3ccc(CC(=O)N4CC(F)C4)cc3F)CC2)n1 [Example 139, 2-(3-fluoro-4-((((1R,2R)-2-(1-(3-isopropyl-1,2,4-oxadiazol-5-yl)piperidin-4-yl)cyclopropyl)methoxy)methyl)phenyl)-1-(3-fluoroazetidin-1-yl)ethanone] | 0.89 |
| CCc1cnc(N2CCC([C@H]3C[C@H]3[C@H](COC)OCc3ccc(S(C)(=O)=O)cc3)CC2)nc1 [Example 65] | 850 |
| CC(C)c1noc(N2CCC([C@H]3C[C@H]3COCc3ccc(CC(=O)N(C)C)cc3F)CC2)n1 [Example 137, 2-(3-fluoro-4-((((1R,2R)-2-(1-(3-isopropyl-1,2,4-oxadiazol-5-yl)piperidin-4-yl)cyclopropyl)methoxy)methyl)phenyl)-N,N-dimethylacetamide] | 1.6 |
| CS(=O)(=O)c1ccc(COC[C@@H]2C[C@@H]2C2CCN(c3ncc(Cl)cn3)CC2)c(F)c1 [Example 68] | 0.18 |
